This note sets out measurements from publication PMC8213057, “Targeting ALK2: An Open Science Approach to Developing Therapeutics for the Treatment of Diffuse Intrinsic Pontine Glioma” (Journal of Medicinal Chemistry, 2020).

For one assay, the target named is EPHA4 (Homo sapiens, UniProt P54764). The following applies: 1 μM; Run 1, Run 2.
The target of the next assay is T1, JAK3 (Homo sapiens, UniProt P52333).
T1 sequence (P52333 1-1124): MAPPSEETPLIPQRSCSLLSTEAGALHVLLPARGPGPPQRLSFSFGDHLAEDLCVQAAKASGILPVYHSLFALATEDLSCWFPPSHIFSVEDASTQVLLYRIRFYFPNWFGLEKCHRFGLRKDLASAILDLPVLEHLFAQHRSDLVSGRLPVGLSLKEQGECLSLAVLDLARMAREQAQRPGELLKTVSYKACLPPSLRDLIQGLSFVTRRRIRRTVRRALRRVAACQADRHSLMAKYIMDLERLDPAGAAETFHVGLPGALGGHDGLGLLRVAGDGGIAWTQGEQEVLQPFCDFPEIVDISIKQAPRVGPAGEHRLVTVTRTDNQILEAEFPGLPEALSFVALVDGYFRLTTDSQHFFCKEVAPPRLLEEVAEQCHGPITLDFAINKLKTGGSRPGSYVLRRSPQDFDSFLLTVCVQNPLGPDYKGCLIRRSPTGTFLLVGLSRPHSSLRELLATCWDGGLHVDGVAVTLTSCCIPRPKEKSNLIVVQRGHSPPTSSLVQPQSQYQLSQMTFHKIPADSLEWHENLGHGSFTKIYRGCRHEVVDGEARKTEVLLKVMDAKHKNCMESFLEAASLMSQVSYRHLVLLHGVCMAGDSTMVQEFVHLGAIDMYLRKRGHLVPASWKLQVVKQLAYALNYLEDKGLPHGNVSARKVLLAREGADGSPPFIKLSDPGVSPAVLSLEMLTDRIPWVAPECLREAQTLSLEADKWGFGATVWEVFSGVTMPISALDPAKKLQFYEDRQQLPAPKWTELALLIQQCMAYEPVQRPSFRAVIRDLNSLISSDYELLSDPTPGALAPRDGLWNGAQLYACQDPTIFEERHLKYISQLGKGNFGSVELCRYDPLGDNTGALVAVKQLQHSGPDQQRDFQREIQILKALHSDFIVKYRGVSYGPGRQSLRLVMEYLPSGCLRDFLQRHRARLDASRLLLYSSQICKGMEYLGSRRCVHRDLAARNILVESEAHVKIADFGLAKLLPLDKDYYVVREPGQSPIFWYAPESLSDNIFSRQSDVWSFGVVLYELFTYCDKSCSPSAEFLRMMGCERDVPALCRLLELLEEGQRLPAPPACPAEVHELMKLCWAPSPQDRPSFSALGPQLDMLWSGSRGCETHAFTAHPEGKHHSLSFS
Particulars: 1 μM; Run 1, Run 2.

The target in a further assay is NEK4 (Homo sapiens, UniProt P51957). The following applies: 1 μM; Run 1, Run 2.
For a further assay, the target named is T2, TNK1 (Homo sapiens, UniProt Q13470).
T2 sequence (Q13470 1-666): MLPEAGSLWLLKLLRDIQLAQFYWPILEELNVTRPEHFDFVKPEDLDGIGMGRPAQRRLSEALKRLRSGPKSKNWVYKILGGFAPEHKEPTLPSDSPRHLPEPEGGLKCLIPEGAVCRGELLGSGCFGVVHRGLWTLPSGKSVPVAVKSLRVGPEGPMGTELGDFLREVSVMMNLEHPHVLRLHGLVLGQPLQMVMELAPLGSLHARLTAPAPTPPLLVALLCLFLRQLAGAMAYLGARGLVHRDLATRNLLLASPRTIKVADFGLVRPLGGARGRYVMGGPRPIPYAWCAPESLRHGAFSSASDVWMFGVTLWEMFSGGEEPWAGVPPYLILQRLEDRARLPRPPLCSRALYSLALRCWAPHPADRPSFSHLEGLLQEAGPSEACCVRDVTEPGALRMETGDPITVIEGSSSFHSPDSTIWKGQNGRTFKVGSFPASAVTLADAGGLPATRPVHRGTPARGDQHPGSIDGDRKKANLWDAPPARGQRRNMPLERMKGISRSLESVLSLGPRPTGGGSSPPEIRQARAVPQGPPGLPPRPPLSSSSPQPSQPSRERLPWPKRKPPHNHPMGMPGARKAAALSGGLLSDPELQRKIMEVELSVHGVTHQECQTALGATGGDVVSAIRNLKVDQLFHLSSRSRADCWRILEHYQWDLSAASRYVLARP
Particulars: 1 μM; Run 1, Run 2.

Another assay concerns the target CDK1/cyclin E (Homo sapiens, UniProt P06493). In words: biochemical. The following applies: read-out: % enzyme activity, 1 μM; Run 1, Run 2.
A further assay has as its target CDK19/cyclin C (Homo sapiens, UniProt Q9BWU1). The assay is described as follows: biochemical. The following applies: read-out: % enzyme activity, 1 μM; Run 1, Run 2.
Another assay addresses MYO3A (Homo sapiens, UniProt Q8NEV4). In words: biochemical. Particulars: read-out: % enzyme activity, 1 μM; Run 1, Run 2.
Another assay concerns the target STK38L/NDR2 (Homo sapiens, UniProt Q9Y2H1). The assay is described as follows: biochemical. The following applies: read-out: % enzyme activity, 1 μM; Run 1, Run 2.
In the next assay the target is T3, TXK (Homo sapiens, UniProt P42681).
T3 sequence (P42681 1-527): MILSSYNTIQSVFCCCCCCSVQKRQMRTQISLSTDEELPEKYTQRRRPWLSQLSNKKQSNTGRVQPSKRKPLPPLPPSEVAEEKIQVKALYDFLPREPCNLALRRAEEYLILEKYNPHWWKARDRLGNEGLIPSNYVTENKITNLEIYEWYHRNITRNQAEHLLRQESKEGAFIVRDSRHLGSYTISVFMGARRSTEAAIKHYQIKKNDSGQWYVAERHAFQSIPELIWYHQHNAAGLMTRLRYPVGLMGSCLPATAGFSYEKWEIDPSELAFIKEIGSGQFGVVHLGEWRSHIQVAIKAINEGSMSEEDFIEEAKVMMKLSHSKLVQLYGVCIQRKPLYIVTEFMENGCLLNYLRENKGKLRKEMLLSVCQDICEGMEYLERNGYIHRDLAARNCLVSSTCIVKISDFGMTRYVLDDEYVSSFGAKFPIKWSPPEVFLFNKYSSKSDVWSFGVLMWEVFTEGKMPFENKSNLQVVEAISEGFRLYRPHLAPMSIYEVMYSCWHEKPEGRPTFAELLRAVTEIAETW
In words: biochemical. Particulars: read-out: % enzyme activity, 1 μM; Run 1, Run 2.

The structures appear in SMILES notation.

Chain of MYO3A (Q8NEV4 whole entry): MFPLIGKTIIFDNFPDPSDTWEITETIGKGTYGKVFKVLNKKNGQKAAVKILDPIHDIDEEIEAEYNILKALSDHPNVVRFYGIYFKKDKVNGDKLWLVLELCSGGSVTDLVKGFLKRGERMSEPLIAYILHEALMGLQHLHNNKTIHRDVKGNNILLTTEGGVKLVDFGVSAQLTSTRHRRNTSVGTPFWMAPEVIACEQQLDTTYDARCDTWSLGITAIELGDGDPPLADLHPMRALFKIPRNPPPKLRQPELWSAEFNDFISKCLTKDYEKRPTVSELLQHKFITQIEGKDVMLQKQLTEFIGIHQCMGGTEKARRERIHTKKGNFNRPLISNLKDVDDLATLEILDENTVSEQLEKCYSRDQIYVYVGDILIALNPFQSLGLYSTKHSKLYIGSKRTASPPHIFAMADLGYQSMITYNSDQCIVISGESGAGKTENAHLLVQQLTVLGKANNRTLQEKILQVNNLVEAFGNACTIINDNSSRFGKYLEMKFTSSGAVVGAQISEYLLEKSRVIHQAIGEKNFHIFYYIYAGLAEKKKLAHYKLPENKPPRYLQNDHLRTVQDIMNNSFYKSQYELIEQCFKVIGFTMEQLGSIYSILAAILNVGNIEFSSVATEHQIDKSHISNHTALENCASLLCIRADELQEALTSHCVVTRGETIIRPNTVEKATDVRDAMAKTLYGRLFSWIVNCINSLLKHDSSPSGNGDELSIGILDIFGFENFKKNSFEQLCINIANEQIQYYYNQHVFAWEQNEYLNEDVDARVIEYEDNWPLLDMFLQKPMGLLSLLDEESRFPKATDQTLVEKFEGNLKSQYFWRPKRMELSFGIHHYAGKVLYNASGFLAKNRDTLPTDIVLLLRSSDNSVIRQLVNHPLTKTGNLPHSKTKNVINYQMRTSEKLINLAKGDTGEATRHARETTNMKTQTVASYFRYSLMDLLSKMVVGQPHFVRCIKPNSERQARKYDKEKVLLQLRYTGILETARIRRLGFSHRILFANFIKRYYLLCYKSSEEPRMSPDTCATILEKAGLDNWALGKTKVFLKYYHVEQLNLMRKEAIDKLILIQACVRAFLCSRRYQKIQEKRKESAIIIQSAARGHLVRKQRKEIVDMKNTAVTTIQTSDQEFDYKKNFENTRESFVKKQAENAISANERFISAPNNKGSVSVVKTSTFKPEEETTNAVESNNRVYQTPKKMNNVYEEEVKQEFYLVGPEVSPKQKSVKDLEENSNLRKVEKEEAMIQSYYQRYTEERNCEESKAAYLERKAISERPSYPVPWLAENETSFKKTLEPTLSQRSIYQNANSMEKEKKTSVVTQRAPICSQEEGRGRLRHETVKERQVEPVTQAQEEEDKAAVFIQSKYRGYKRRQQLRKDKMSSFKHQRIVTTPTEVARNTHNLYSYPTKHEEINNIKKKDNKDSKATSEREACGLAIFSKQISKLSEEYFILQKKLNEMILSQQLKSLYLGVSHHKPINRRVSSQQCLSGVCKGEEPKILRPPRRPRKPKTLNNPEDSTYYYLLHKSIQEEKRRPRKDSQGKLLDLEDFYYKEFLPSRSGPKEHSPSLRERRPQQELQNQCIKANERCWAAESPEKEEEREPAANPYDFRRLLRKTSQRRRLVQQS
Chain of CDK1/cyclin E (P24864 whole entry): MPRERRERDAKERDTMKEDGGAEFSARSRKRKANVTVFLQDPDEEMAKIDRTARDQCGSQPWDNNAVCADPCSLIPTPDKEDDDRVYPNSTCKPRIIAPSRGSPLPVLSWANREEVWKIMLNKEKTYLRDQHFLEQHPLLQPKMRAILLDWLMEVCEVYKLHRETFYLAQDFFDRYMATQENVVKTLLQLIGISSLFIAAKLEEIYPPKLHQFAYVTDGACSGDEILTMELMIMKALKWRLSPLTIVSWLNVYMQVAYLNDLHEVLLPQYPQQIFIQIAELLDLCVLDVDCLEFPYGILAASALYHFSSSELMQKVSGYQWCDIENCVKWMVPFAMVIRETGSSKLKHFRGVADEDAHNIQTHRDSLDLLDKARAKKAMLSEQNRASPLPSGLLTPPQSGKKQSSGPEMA
Chain of CDK1/cyclin E (P06493 whole entry): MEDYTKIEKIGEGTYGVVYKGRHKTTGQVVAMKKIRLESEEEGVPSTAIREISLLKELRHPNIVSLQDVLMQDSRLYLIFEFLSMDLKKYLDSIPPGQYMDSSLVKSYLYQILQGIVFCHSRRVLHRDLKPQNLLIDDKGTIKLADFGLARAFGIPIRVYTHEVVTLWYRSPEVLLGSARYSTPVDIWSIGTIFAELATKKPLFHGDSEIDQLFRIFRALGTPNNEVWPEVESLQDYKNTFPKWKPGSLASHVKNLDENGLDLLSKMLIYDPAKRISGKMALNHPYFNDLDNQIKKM
Chain of CDK19/cyclin C (Q9BWU1 whole entry): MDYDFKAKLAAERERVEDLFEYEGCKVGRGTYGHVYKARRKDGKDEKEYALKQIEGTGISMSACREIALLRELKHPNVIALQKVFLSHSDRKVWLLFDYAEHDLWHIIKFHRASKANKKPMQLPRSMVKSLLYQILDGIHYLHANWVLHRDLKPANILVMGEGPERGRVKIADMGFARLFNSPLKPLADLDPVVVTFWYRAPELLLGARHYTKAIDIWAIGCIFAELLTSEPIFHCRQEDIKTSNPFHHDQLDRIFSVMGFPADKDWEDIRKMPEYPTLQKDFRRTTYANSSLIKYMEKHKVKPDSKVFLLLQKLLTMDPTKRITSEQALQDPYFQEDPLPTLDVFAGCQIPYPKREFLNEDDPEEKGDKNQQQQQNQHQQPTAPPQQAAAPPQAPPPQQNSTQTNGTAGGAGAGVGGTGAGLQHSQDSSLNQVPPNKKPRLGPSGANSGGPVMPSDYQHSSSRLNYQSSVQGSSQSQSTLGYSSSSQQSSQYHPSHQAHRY
Chain of CDK19/cyclin C (P24863 whole entry partner): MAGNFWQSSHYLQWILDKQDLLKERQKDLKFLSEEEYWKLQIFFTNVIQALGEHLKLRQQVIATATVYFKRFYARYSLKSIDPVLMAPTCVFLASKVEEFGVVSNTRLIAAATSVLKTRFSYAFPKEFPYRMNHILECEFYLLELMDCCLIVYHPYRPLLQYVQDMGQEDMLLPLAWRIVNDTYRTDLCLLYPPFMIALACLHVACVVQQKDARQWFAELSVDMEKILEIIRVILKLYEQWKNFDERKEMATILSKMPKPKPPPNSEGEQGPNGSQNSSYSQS
Chain of STK38L/NDR2 (Q9Y2H1 whole entry): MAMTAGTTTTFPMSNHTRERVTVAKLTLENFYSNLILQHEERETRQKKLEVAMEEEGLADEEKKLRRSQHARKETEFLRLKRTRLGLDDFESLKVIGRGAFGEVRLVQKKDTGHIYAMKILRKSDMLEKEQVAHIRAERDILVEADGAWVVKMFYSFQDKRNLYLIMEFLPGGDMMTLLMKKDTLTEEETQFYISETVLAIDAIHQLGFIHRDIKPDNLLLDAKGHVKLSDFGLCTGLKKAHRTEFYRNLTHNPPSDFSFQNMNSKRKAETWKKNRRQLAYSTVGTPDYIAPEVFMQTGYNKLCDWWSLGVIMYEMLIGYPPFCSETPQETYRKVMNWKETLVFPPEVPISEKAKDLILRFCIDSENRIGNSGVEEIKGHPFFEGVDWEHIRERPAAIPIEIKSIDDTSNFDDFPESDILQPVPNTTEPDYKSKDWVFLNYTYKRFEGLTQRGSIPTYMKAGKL
Chain of EPHA4 (P54764 20-986): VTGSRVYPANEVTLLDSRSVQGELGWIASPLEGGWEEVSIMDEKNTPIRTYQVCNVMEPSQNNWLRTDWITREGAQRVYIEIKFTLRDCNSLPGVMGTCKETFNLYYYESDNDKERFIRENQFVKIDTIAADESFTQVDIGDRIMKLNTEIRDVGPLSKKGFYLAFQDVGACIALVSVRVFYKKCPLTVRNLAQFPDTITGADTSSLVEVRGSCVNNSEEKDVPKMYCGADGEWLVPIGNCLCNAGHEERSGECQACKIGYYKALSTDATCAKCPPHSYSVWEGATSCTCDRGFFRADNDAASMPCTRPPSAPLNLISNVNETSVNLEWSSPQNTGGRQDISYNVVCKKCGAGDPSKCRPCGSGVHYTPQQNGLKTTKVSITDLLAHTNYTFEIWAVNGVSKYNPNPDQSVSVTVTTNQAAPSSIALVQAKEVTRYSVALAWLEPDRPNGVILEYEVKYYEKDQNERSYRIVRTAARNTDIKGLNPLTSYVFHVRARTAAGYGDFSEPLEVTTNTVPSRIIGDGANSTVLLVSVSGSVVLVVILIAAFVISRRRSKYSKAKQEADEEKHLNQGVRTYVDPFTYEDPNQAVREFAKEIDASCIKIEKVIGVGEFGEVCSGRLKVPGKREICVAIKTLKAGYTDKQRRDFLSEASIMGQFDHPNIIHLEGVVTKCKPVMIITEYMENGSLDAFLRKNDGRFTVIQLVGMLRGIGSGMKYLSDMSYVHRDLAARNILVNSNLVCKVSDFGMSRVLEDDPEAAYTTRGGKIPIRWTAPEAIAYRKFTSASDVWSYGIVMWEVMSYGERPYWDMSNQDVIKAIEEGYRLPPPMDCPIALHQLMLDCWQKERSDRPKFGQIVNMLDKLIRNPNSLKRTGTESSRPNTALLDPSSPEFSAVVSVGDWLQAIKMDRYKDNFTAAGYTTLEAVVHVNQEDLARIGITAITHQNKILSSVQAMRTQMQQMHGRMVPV

For `COc1cc(-c2cncc(-c3ccc(N4CCN(C)CC4)cc3)c2C)cc(F)c1C(N)=O` [Compound 26a, 2-Fluoro-6-methoxy-4-(4-methyl-5-(4-(4-methylpiperazin-1-yl)phenyl)pyridin-3-yl)benzamide], the “% enzyme activity” value on EPHA4 amounted to 91.81%; on JAK3 it was 102.92%; on NEK4, 97.67%; on TNK1, 99.53%. Also, the remaining activity at 1 µM at CDK1/cyclin E came to 98.3%; on CDK19/cyclin C it was 79.1%; on MYO3A, 84%; at STK38L/NDR2, 99.4%; at TXK, 101%.

Take `COc1cc(-c2cncc(-c3ccc(N4C[C@@H](C)N(C)[C@@H](C)C4)cc3)c2C)cc(F)c1C(N)=O` [Compound 26c, 2-Fluoro-6-methoxy-4-(4-methyl-5-(4-((3R,5S)-3,4,5-trimethylpiperazin-1-yl)phenyl)pyridin-3-yl)benzamide]: the “% enzyme activity” value was determined as 98.76% on EPHA4, 99.31% on JAK3, 97.25% at NEK4 and 98.22% on TNK1. The remaining activity at 1 µM on CDK1/cyclin E came out at 92.4%; at CDK19/cyclin C, 87.1%; on MYO3A it was 94.7%; on STK38L/NDR2, 104%; at TXK, 98.2%.
